These are literature values, as cited in patent publication US5627202A, “Inhibitors of farnesyl-protein transferase” (Merck & Co., Inc., priority 1996, dated 1997).

The data set has as its system farnesyl-protein transferase. As to conditions: via HMG-CoA reductase inhibition.

In the case of `CC[C@H](C)C(=O)O[C@H]1CCC=C2C=C[C@H](C)[C@H](CC[C@@H]3C[C@@H](O)CC(=O)O3)[C@H]21` [compactin], the “Indirect inhibition of farnesyl-protein transferase in vivo” value was “Indirect inhibition of farnesyl-protein transferase in vivo”.
`CC[C@H](C)C(=O)O[C@H]1C[C@@H](C)C=C2C=C[C@H](C)[C@H](CC[C@@H]3C[C@@H](O)CC(=O)O3)[C@H]21` [lovastatin]: the “Indirect inhibition of farnesyl-protein transferase in vivo” value is listed as “Indirect inhibition of farnesyl-protein transferase in vivo”.
